Measured values published in PubChem BioAssay (NCI).
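A five-concentration, 48-hour dose response in 96-well plates underlies each endpoint, interpolated linearly between surrounding concentrations. The concentration for 50% growth inhibition is given as GI50. TGI: total growth inhibition.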

Legend:
Test in all cases: growth of human tumour cells (NCI), 48 h
HOP-92 NSCLC = test system: HOP-92 NSCLC
SF-295 CNS = test system: SF-295 CNS
NCI-H522 lung = test system: NCI-H522 lung
UACC-257 melanoma = test system: UACC-257 melanoma
HCC-2998 colon = test system: HCC-2998 colon
SW-620 colon = test system: SW-620 colon
NCI-H226 lung = test system: NCI-H226 lung
CCRF-CEM leukemia = test system: CCRF-CEM leukemia
COLO 205 colon = test system: COLO 205 colon
M14 melanoma = test system: M14 melanoma

Row | SMILES | TGI (HOP-92 NSCLC) | TGI (SF-295 CNS) | TGI (NCI-H522 lung) | TGI (UACC-257 melanoma) | TGI (HCC-2998 colon) | TGI (SW-620 colon) | TGI (NCI-H226 lung) | TGI (CCRF-CEM leukemia) | TGI (COLO 205 colon) | TGI (M14 melanoma) | GI50 (HOP-92 NSCLC) | GI50 (SF-295 CNS) | GI50 (NCI-H522 lung) | GI50 (UACC-257 melanoma) | GI50 (HCC-2998 colon) | GI50 (SW-620 colon) | GI50 (NCI-H226 lung) | GI50 (CCRF-CEM leukemia) | GI50 (COLO 205 colon) | GI50 (M14 melanoma)
1 | COc1cc(C2c3cc4c(cc3OC(N3CCCC3)C2C)OCO4)cc(OC)c1OC (centres undefined) | 21.2 µM | 2.55 µM | 1.55 µM | 49 µM | 4.32 µM | > 33.9 µM | 3.19 µM | > 51.9 µM | 1.03 µM | 12.8 µM | – | – | – | – | – | – | – | – | – | –
2 | COc1c(CCC[P+](c2ccccc2)(c2ccccc2)c2ccccc2)cc2c(c1OC)OCO2 | 4.93 µM | 8.38 µM | 10.8 µM | 4.38 µM | 14.6 µM | 11.1 µM | 42.2 µM | > 100 µM | 5.71 µM | 19.2 µM | 0.507 µM | 2.62 µM | 1.75 µM | 0.312 µM | 2.22 µM | 1.93 µM | 3.3 µM | 1.7 µM | 1.21 µM | 2.22 µM
3 | CCCCCCCCCCCCOC(=S)NCCCC | 46.9 µM | > 100 µM | 36.5 µM | 44 µM | 34 µM | 35.5 µM | 45.1 µM | 80.4 µM | – | 79 µM | – | – | – | – | – | – | – | – | – | –
4 | c1cc(-c2cn3ccsc3n2)ccn1 | > 100 µM | > 100 µM | > 100 µM | > 100 µM | > 100 µM | > 62.3 µM | > 100 µM | > 60.5 µM | > 100 µM | > 100 µM | – | – | – | – | – | – | – | – | – | –
5 | O=CNc1c(Cl)cc2c(c1Cl)Cc1cc([N+](=O)[O-])ccc1-2 | > 100 µM | 14.3 µM | > 29.1 µM | > 100 µM | 39.9 µM | > 100 µM | > 94.1 µM | > 100 µM | 23.7 µM | > 54.6 µM | 6.73 µM | 3.05 µM | 3.05 µM | 64 µM | 5.84 µM | 3.33 µM | 4.21 µM | 0.445 µM | 4.76 µM | 2.92 µM
6 | Cc1ccc2c(ccc3c[n+]4c5ccccc5ccc4n32)c1 | 5.47 µM | 6.91 µM | 3.8 µM | 3.82 µM | 2.98 µM | 10.7 µM | 10.4 µM | 10.6 µM | 2.35 µM | 4.68 µM | 1.54 µM | 1.56 µM | 1.09 µM | 1.43 µM | 1.27 µM | 0.508 µM | 2.43 µM | 2.46 µM | 0.485 µM | 1.35 µM
7 | O=C(c1ccc(F)cc1)c1cccc(C(=O)c2ccc(F)cc2)n1 | 44.4 µM | 39.3 µM | 71.5 µM | > 56.2 µM | > 100 µM | > 100 µM | > 78 µM | > 100 µM | > 100 µM | > 100 µM | – | – | – | – | – | – | – | – | – | –
8 | NC(=S)N/N=C(/CC(=O)c1ccccc1)C(=O)Nc1ccc(Cl)c(Cl)c1 | > 100 µM | > 100 µM | 59.4 µM | > 100 µM | > 100 µM | > 100 µM | > 100 µM | 91.6 µM | > 100 µM | > 100 µM | – | – | – | – | – | – | – | – | – | –
